Earlier results in patent publication US20240180950A1, “Prevention and Treatment of Post-Infection Neurological Disorders and Clotting/Thrombotic Disorders” (priority 2021, published 2024).

Conditions: 250 mg, 500 mg, 1000 mg, 2000 mg, and 4000 mg per day, per person, in 2 or 3 divided doses

## Nc1nc2c(ncn2[C@@H]2O[C@H](COP(=O)(O)O)[C@@H](O)[C@H]2O)c(=O)[nH]1 [guanosine monophosphate]
  safety of daily human doses of guanosine monophosphate: safe
